Assay results: patent publication US20110206607A1, “IMIDAZOL (1,2-A)PYRIDINES AND RELATED COMPOUNDS WITH ACTIVITY AT CANNABINOID CB2 RECEPTORS” (priority 2007, published 2011)

molecular target: T1, human CB2 (Homo sapiens, UniProt P34972); assay: CB2 receptor binding assay, block of [3H]-CP 55,940 binding; conditions: membranes of HEK-293T cells transfected with human CB2 cDNA; 1.5 nM [3H]-CP 55,940
T1 construct: expressed in transfected cells; host or cells: HEK-293T (transient transfection, membrane preparation)
T1 sequence (P34972 whole entry): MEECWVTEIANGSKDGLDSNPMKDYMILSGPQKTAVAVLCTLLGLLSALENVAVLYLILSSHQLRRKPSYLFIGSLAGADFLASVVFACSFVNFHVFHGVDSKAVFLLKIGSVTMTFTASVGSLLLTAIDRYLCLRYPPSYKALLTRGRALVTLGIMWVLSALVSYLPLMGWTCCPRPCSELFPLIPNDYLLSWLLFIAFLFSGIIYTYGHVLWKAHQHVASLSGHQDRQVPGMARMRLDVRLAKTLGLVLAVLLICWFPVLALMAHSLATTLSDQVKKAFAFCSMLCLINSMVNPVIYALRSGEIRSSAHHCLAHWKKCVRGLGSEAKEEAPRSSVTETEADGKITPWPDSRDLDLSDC
Method: Membrane preparation—HEK-293T cells were cultured according to ATCC (Manassas, Va.) guidelines and transfected with human CB2 cDNA (SEQ ID NO:1) (Genbank X74328), operably linked to the SV40 promoter, using Polyfect (Qiagen, Valencia, Calif.) or Fugene (Roche, Nutley, N.J.) according to manufacturer's instructions. 48 h after transfection cells were harvested in ice cold membrane buffer (20 mM HEPES, 6 mM MgCl2, 1 mM EDTA, pH 7.2) using a cell scraper. Cells were transferred to a nitrogen cavitation chamber and a pressure of […] was applied for 30 min. The pressure was released and the cell debris was collected and centrifuged at 1000 g at 4° C. for 10 min. The supernatant was collected and the spin was repeated until the supernatant was free of precipitate. Membranes were then pelleted by centrifugation at 12.000 g at 4° C. for 20 min. Membranes were resuspended in an appropriate amount of membrane buffer. The membrane concentration was determined using a BioRad (Hercules, Calif.) protein assay dye reagent according to manufacturer's instructions. Membranes were diluted to 1 mg/ml and aliquots snap-frozen in liquid nitrogen and store at −80° C.
Binding assay—0.5-10 ng of membranes were incubated in binding buffer (50 mM Tris, 0.5 mM EDTA, 0.1% BSA, pH 7.4) in the presence of 1.5 nM radioligand ([^3H]-CP 55,940 Perkin Elmer) and varying concentrations of ligands (total volume 100 μL in a 96 well plate). Membranes were filtered onto a 96 well GF/B filterplate (Packard Bioscience, Shelton, Conn.) and washed with […] wash buffer (25 mM HEPES, 1 mM CaCl2, 5 mM MgCl2, 0.25M NaCl) using a Filtermate 196 Harvester (Packard Instruments, Downers Grove, Ill.). The filter plates were dried under a heat lamp before addition of 50 μL of scintillation fluid to each well (Microscint 20, Packard, Shelton, Conn.). Plates were counted on a Topcount NXT (Packard, Shelton, Conn.).
Data Analysis—Graphs were plotted and KD values were determined by nonlinear regression analysis using Prism software (GraphPad version 4.0, San Diego, Calif., USA).

Row | Structure (SMILES) | pKi | Ki [nM]
1 | COc1cccc2nc(-c3c(F)cc(O)cc3F)c(Nc3ccc4c(c3)OCCO4)n12 [CR-15] | 8.6 | –
2 | OCc1ccn2c(Nc3ccc4c(c3)OCCO4)c(-c3c(F)cccc3Cl)nc2c1 [CR-102] | 6.4 | –
3 | C=COc1ccc2nc(-c3c(F)cccc3Cl)c(Nc3ccc4c(c3)OCCO4)n2c1 [CR-30] | 7.8 | –
4 | COc1cc(-c2nc3cccc(C)n3c2Nc2ccc3c(c2)OCCO3)cc(F)c1O [CR-95] | 6.6 | –
5 | COc1cccc2nc(-c3c(Cl)cncc3Cl)c(Nc3ccc4c(c3)OCCO4)n12 [CR-20] | 8.4 | –
6 | Clc1cccc(Cl)c1-c1nc2cnccn2c1Nc1ccc2c(c1)OCCO2 [CR-94] | 6.6 | –
7 | Cc1cccc2nc(-c3c(F)cc(OCCF)cc3F)c(Nc3ccc4c(c3)OCCO4)n12 [CR-26] | 7.9 | –
8 | Cc1ccc2nc(-c3ncccc3F)c(Nc3ccc4c(c3)OCCO4)n2c1 [CR-87] | 6.6 | –
9 | FCCOc1cccc2nc(-c3c(F)cccc3Cl)c(Nc3ccc4c(c3)OCCO4)n12 [CR-37] | 7.7 | –
10 | Fc1cccc(Cl)c1-c1nc2cnccn2c1Nc1ccc2c(c1)OCCO2 [CR-103] | 6.4 | –
11 | Oc1cc(F)c(-c2nc3cccc(OCCF)n3c2Nc2ccc3c(c2)OCCO3)c(F)c1 [CR-6] | 7.6 | –
12 | COc1ccc2nc(-c3c(F)cccc3Cl)c(Nc3ccc4c(c3)OCCO4)n2c1Cl [CR-44] | 7.4 | –
13 | Cc1cccc(C)c1-c1nc2cnccn2c1Nc1ccc2c(c1)OCCO2 [CR-82] | 6.7 | –
14 | COc1cccc2nc(-c3c(Cl)cc(O)cc3Cl)c(Nc3ccc4c(c3)OCCO4)n12 [CR-23] | 8.2 | –
15 | Cc1ccc2nc(-c3c(Cl)cccc3Cl)c(Nc3ccc4c(c3)OCCO4)n2c1 [CR-39] | 7.6 | –
16 | COc1cc(-c2nc3ccncn3c2Nc2ccc3c(c2)OCCO3)ccc1O [CR-98] | 6.5 | –
17 | Cc1cccc2nc(-c3c(Cl)cccc3Cl)c(Nc3ccc4c(c3)OCCO4)n12 [CR-32] | 7.8 | –
18 | COc1cccc2nc(-c3c(F)ccc(O)c3Cl)c(Nc3ccc4c(c3)OCCO4)n12 [CR-2] | 8.6 | –
19 | Fc1cccnc1-c1nc2cnccn2c1Nc1ccc2c(c1)OCCO2 [CR-76] | 5.2 | –
20 | Fc1cccc(Cl)c1-c1nc2ncccn2c1Nc1ccc2c(c1)OCCO2 [CR-46] | 7.4 | –
21 | Fc1cccc(Cl)c1-c1nc2cccc(C(F)(F)F)n2c1Nc1ccc2c(c1)OCCO2 [CR-122] | 6.0 | –
22 | Cc1cccc2nc(-c3ccc(OCCF)c(O)c3)c(Nc3ccc4c(c3)OCCO4)n12 [CR-69] | 6.8 | –
23 | COc1cnc2nc(-c3c(F)cccc3Cl)c(Nc3ccc4c(c3)OCCO4)n2c1 [CR-31] | 7.8 | –
24 | COc1cc(-c2nc3cccc(C)n3c2Nc2ccc3c(c2)OCCO3)ccc1OCCF [CR-88] | 6.6 | –
25 | Fc1ncccc1-c1nc2cnccn2c1Nc1ccc2c(c1)OCCO2 [CR-78] | 5.4 | –
26 | COc1cccc2nc(-c3c(F)cncc3F)c(Nc3ccc4c(c3)OCCO4)n12 [CR-34] | 7.8 | –

Row | Structure (SMILES) | pKi | Ki [nM]
27 | Fc1cncc(F)c1-c1nc2cccc(OCC[18F])n2c1Nc1ccc2c(c1)OCCO2 [CR-135] | – | 39.8
28 | Fc1cccnc1-c1nc2ccccn2c1Nc1ccc2c(c1)OCCO2 [CR-113] | 6.3 | –
29 | Fc1cccc(F)c1-c1nc2ccccn2c1Nc1ccc2c(c1)OCCO2 [CR-56] | 7.3 | –
30 | COc1cccc(OC)c1-c1nc2ncccn2c1Nc1ccc2c(c1)OCCO2 [CR-121] | 6.0 | –
31 | Cc1cccc2nc(-c3c(F)cc(O)cc3F)c(Nc3ccc4c(c3)OCCO4)n12 [CR-28] | 7.9 | –
32 | CNc1cccc2nc(-c3c(F)cccc3Cl)c(Nc3ccc4c(c3)OCCO4)n12 [CR-43] | 7.5 | –
33 | Fc1cccc(-c2nc3ccccn3c2Nc2ccc3c(c2)OCCO3)n1 [CR-63] | 7.0 | –
34 | COc1cc(O)ccc1-c1nc2cc(C)ccn2c1Nc1ccc2c(c1)OCCO2 [CR-107] | 6.4 | –
35 | Cc1ccc2nc(-c3cccc(F)n3)c(Nc3ccc4c(c3)OCCO4)n2c1 [CR-59] | 7.1 | –
36 | COc1cc(-c2nc3c(C)cccn3c2Nc2ccc3c(c2)OCCO3)ccc1O [CR-72] | 6.8 | –
37 | COc1cc(-c2nc3ccccn3c2Nc2ccc3c(c2)OCCO3)cc(F)c1O [CR-93] | 5.7 | –
38 | COc1cccc(OC)c1-c1nc2ccncn2c1Nc1ccc2c(c1)OCCO2 [CR-90] | 5.6 | –
39 | Cc1cccc2nc(-c3cccc(F)n3)c(Nc3ccc4c(c3)OCCO4)n12 [CR-84] | 6.7 | –
40 | COc1cc(-c2nc3ccc(C)cn3c2Nc2ccc3c(c2)OCCO3)ccc1O [CR-81] | 6.7 | –
41 | COc1cc(O)ccc1-c1nc2ccncn2c1Nc1ccc2c(c1)OCCO2 [CR-120] | 5.9 | –
42 | COc1cc(-c2nc3cc(C)ccn3c2Nc2ccc3c(c2)OCCO3)ccc1O [CR-60] | 7.1 | –
43 | Oc1cc(Cl)c(-c2nc3cccc(OCCF)n3c2Nc2ccc3c(c2)OCCO3)c(Cl)c1 [CR-35] | 7.8 | –
44 | Cc1ccn2c(Nc3ccc4c(c3)OCCO4)c(-c3c(Cl)cccc3Cl)nc2c1 [CR-68] | 6.9 | –
45 | COc1cccc2nc(-c3c(Cl)cccc3Cl)c(Nc3ccc4c(c3)OCCO4)n12 [CR-18] | 8.4 | –
46 | Cc1cccc2nc(-c3ncccc3F)c(Nc3ccc4c(c3)OCCO4)n12 [CR-57] | 7.2 | –
47 | Cc1cccc2nc(-c3c(F)cc(C#N)cc3F)c(Nc3ccc4c(c3)OCCO4)n12 [CR-53] | 7.3 | –
48 | Cc1cccn2c(Nc3ccc4c(c3)OCO4)c(-c3c(F)cccc3Cl)nc12 [CR-129] | 6.4 | –
49 | COc1ccnc2nc(-c3c(C)cc(OCCF)cc3C)c(Nc3ccc4c(c3)OCCO4)n12 [CR-73] | 6.8 | –
50 | Cc1cccc2nc(-c3c(O)cccc3F)c(Nc3ccc4c(c3)OCCO4)n12 [CR-86] | 6.6 | –
51 | COc1cccc2nc(-c3c(F)cccc3F)c(Nc3ccc4c(c3)OCCO4)n12 [CR-19] | 8.4 | –
52 | Cc1ccc2nc(-c3c(F)cccc3Cl)c(Nc3ccc4c(c3)OCCO4)n2c1 [CR-42] | 7.5 | –

Row | Structure (SMILES) | pKi | Ki [nM]
53 | COc1cccc2nc(-c3c(F)cc(OCCF)cc3F)c(Nc3ccc4c(c3)OCCO4)n12 [CR-17] | 8.5 | –
54 | COc1cccc2nc(-c3c(F)cccc3Cl)c(NC(=O)c3ccc4c(c3)OCCO4)n12 [CR-117] | 5.7 | –
55 | COc1cccc(F)c1-c1nc2cnccn2c1Nc1ccc2c(c1)OCCO2 [CR-125] | 5.9 | –
56 | COc1cccc2nc(-c3c(F)ccc(OC[18F])c3Cl)c(Nc3ccc4c(c3)OCCO4)n12 [CR-134] | – | 1
57 | Cc1ccn2c(Nc3ccc4c(c3)OCCO4)c(-c3ccccn3)nc2c1 [CR-119] | 5.9 | –
58 | Fc1cccc(Cl)c1-c1nc2ccccn2c1Nc1ccc2c(c1)OCO2 [CR-128] | 6.7 | –
59 | COc1cccc(OC)c1-c1nc2ccc(C)cn2c1Nc1ccc2c(c1)OCCO2 [CR-100] | 6.5 | –
60 | Cc1cccc2nc(-c3c(F)cncc3F)c(Nc3ccc4c(c3)OCCO4)n12 [CR-52] | 7.3 | –
61 | COc1ccc2nc(-c3c(Cl)cncc3Cl)c(Nc3ccc4c(c3)OCCO4)n2c1 [CR-66] | 6.9 | –
62 | COc1ccnc2nc(-c3c(F)cc(OCCF)cc3F)c(Nc3ccc4c(c3)OCCO4)n12 [CR-61] | 7.0 | –
63 | CCC(C)Oc1cccc2nc(-c3c(F)cccc3Cl)c(Nc3ccc4c(c3)OCCO4)n12 (centres unmarked) [CR-62] | 7.0 | –
64 | COc1cc(-c2nc3cnccn3c2Nc2ccc3c(c2)OCCO3)cc(F)c1O [CR-91] | 6.6 | –
65 | Cc1cccn2c(Nc3ccc4c(c3)OCCO4)c(-c3c(F)cccc3Cl)nc12 [CR-50] | 7.3 | –
66 | Cc1cccc2nc(-c3c(F)cccc3Cl)c(N(C)c3ccc4c(c3)OCCO4)n12 [CR-124] | 6.0 | –
67 | COc1cccc(F)c1-c1nc2ncccn2c1Nc1ccc2c(c1)OCCO2 [CR-112] | 6.3 | –
68 | Clc1cncc(Cl)c1-c1nc2ccccn2c1Nc1ccc2c(c1)OCCO2 [CR-64] | 7.0 | –
69 | COc1cccc(OC)c1-c1nc2cccc(C)n2c1Nc1ccc2c(c1)OCCO2 [CR-114] | 6.3 | –
70 | COc1cc(O)ccc1-c1nc2c(C)cccn2c1Nc1ccc2c(c1)OCCO2 [CR-105] | 6.4 | –
71 | COc1ccc2nc(-c3c(F)cccc3Cl)c(Nc3ccc4c(c3)OCCO4)n2c1OC [CR-67] | 6.9 | –
72 | COc1ccnc2nc(-c3c(C)cc(O)cc3C)c(Nc3ccc4c(c3)OCCO4)n12 [CR-108] | 6.3 | –
73 | Fc1ccc2nc(-c3c(F)cccc3Cl)c(Nc3ccc4c(c3)OCCO4)n2c1 [CR-40] | 7.5 | –
74 | Fc1ccc(-c2nc3cnccn3c2Nc2ccc3c(c2)OCCO3)cn1 [CR-89] | 5.5 | –
75 | COc1cccc2nc(-c3c(C)cc(OC[18F])cc3C)c(Nc3ccc4c(c3)OCCO4)n12 [CR-136] | 9.5 | –
76 | Fc1ccc(-c2nc3ccccn3c2Nc2ccc3c(c2)OCCO3)cn1 [CR-110] | 5.7 | –
77 | Cc1ccn2c(Nc3ccc4c(c3)OCCO4)c(-c3ncccc3F)nc2c1 [CR-106] | 5.7 | –
